“And” between values parts separate entries of the source, which are not always exact repeats. Equal values may be shown once. “Also recorded” adds a separate entry of the source.
How the values were obtained:
[1] = test system: L. major-infected cell; set-up: method as in PMID 16143535; conditions: compared with non-infected conditions; cited from earlier work
[2] = test system: Leishmania infected-macrophages; set-up: method as in PMID 18164321; conditions: 250 μM; cited from earlier work
[3] = test system: Leishmania amazonensis; set-up: method as in PMID 19748254; conditions: cited from earlier work
[4] = test system: L. braziliensis; set-up: method as in PMID 19748254; conditions: cited from earlier work
[5] = test system: Leishmania (L.) amazonensis promastigotes; assay: Anti-promastigote assay (MTT); assay type: cell-based
Description: Promastigotes from Leishmania (L.) amazonensis (MHOM/BR/26361) were obtained in NNN (Neal, Novy and Nicolle) medium from the Instituto Evandro Chagas and subsequently maintained in RPMI medium supplemented with 10% heat-inactivated fetal bovine serum (FBS) at 25 °C.
Leishmania (L.) amazonensis promastigotes (10^6 parasites/mL) were seeded in 24-well plates with RPMI medium without phenol, the medium was supplemented with 10% FBS, and the cells were then treated with different concentrations of (+)-phyllanthidine (10, 20, 50, 100 and 200 µg/mL). The cultures were incubated at 25 °C for 4 days without medium replacement. Every 24 h, aliquots were harvested and promastigotes were incubated with 20 µL of MTT (2 µg/mL) for 4 h. Then, 20 µL of DMSO was added to the wells, and the plate was allowed to shake for 30 min for complete solubilization. One known anti-leishmanial drug (Amphotericin B—0.5 µg/mL) was used as a positive control.

[6] = test system: Leishmania (L.) amazonensis amastigotes; assay: Anti-amastigote assay in infected peritoneal macrophages; assay type: cell-based; conditions: for parasite (amastigote) reduction: infected macrophages, vs untreated cells
Description: (§1) Macrophages were obtained from the peritoneal cavity of male mouse BALB/c (Mus musculus), and the animals were sacrificed in a CO2 chamber (Insight®). The material was harvested with Hank’s solution, concentrated by centrifugation at 4 °C, cultured in a 24-well plate and incubated in an atmosphere containing 5% CO2 at 37 °C for 1 h. After that, non-adherent cells were washed with DMEM and incubated for 24 h with DMEM medium supplemented with 10% FBS. The experimental protocol was approved by the Committee on the Ethics of Animal Experiments (CEPAE, grant number 046-2015) of Universidade Federal do Pará.
Adherent peritoneal macrophages were infected with Leishmania (L.) amazonensis promastigotes (stationary growth phase) at a parasite/macrophage ratio of 10:1 and incubated for 3 h at 37 °C and 5% CO2. After 3 h, free parasites were removed by washing with PBS pH 7.2, and the cultures were treated with 50 and 100 µg/mL (+)-phyllanthidine for 48 h post infection, without replacing the culture medium. The cells were washed with PBS pH 7.2, fixed with methanol and stained with Giemsa. The number of parasites was determined by examining three cover slips for each treatment. At least 100 infected macrophages were counted, and the results were expressed as the survival percentage, in comparison with controls. Amphotericin B (0.5 µg/mL) was used as a positive control. The selectivity index (SI) was calculated as the ratio between the cytotoxicity and antiparasitic activity against intracellular amastigotes.

[7] = test system: L. (V) braziliensis promastigote forms; set-up: method as in PMID 19489596; conditions: cited from earlier work
[8] = test system: L. (V.) peruviana promastigote forms; set-up: method as in PMID 19489596; conditions: cited from earlier work
[9] = test system: L. (L.) amazonensis promastigote; conditions: 72 h of treatment; cited from earlier work
[10] = test system: L. (L.) amazonensis amastigote form; set-up: method as in PMID 20661748; conditions: 79 μM, 72 h; cited from earlier work
[11] = test system: L. mexicana; set-up: method as in doi:10.1080/13880200600878361; conditions: cited from earlier work
[12] = Cytotoxicity assay of host cells (MTT); assay type: cell-based, mouse BALB/c (Mus musculus); conditions: male, BALB/c, mouse, peritoneal macrophages
Description: as §1
(§2) MTT is a tetrazolium salt that is converted into blue formazan crystals that are insoluble in water after cleavage by mitochondrial dehydrogenases, which causes them to accumulate in viable cells. The procedure was performed according to Fotakis and Timbrell (2006), with some modifications. Macrophages treated with 10, 20, 50, 100 and 200 µg/mL of (+)-phyllanthidine for 48 h and untreated cells were incubated with MTT (0.5 mg/mL) dissolved in phosphate-buffered saline (PBS), pH 7.2 for 3 h in a humidified atmosphere containing 5% CO2 at 37 °C. […] The absorbance of each solution was recorded at an optical density (OD) of 570 nm using a spectrophotometer (Bio-Rad Model 450 Microplate Reader). The assay specificity was determined by using non-viable cells treated with 10% formaldehyde in PBS. […]

[13] = test system: peritoneal macrophages; assay: Cytotoxicity assay of host cells (MTT); assay type: cell-based, mouse BALB/c (Mus musculus); conditions: 10-200 µg/mL, 48 h
Description: as §1, §2

[14] = test system: Leishmania (L.) amazonensis promastigotes; assay: Ultrastructural assay (SEM and TEM); assay type: cell-based
Description: Scanning Electron Microscopy (SEM): Promastigotes were treated with 50 and 100 µg/mL of (+)-phyllanthidine for 4 days, and they were fixed with paraformaldehyde (4%) and glutaraldehyde (2.5%) in cacodylate buffer (0.1 M) for one hour. The cells were post-fixed in osmium tetroxide (1%), dehydrated in graded ethanol, brought to their critical point with CO2, coated with gold and analyzed in a Zeiss LEO 1450VP SEM (Göttingen, Germany).
Transmission Electron Microscopy (TEM): Promastigotes treated with 50 and 100 µg/mL (+)-phyllanthidine for 4 days were fixed with glutaraldehyde (2.5%) and paraformaldehyde (4%) in cacodylate buffer (0.1 M) for one hour. The parasites were post-fixed in an osmium tetroxide solution (1%) and ferrocyanide (0.8%), dehydrated in graded acetone and embedded in epoxy resin. Ultrathin sections were obtained, stained with uranyl acetate/lead citrate and examined with a Zeiss 906E TEM (Göttingen, Germany).

In the case of `O=C(O[C@@H]1O[C@@H]2COC(=O)c3cc(O)c(O)c(O)c3-c3c(cc(O)c(O)c3O)C(=O)O[C@H]([C@H]1O)[C@@H]2O)c1cc(O)c(O)c(O)c1` [Corilagin, corilagin], the “iNOS and cytokine mRNA levels” value [1] is given as “capable of enhancing the iNOS and cytokine mRNA levels”.

For `O=C(O)c1cc(O)c(O)c(O)c1` [gallic acid], the NO-production [2] is given as “modest NO-production” and the parasite viability [2] is given as “did not reduce parasite viability”.

In the case of `C=C(C)[C@@H]1CC[C@]2(C(=O)O)CC[C@]3(C)[C@H](CC[C@@H]4[C@@]5(C)CC[C@H](O)C(C)(C)[C@@H]5CC[C@]43C)[C@@H]12` [betulinic acid], the antiprotozoal activity [3] is given as “No antiprotozoal activity” and the antiprotozoal activity [4] is given as “No antiprotozoal activity”.

With `C[C@@H]1[C@H](O)[C@@H](C)/C=C/C=C/C=C/C=C/C=C/C=C/C=C/[C@H](O[C@@H]2O[C@H](C)[C@@H](O)[C@H](N)[C@@H]2O)C[C@@H]2O[C@](O)(C[C@@H](O)C[C@@H](O)[C@H](O)CC[C@@H](O)C[C@@H](O)CC(=O)O[C@H]1C)C[C@H](O)[C@H]2C(=O)O` [Amphotericin B, reference compound] the “reduction of promastigotes (positive control)” value ([5]; 0.5 μg/mL (0.54 µM), 96 h) was 100% and the “amastigote reduction (positive control)” value ([6]; 0.5 µg/mL (0.54 µM), 48 h) was 90.42%.

In the case of `O=c1c(O)c(-c2ccc(O)cc2)oc2cc(O)cc(O)c12` [Kaempferol, kaempferol], the leishmanicidal activity [7] is given as “showed leishmanicidal activity” and the leishmanicidal activity [8] is given as “showed leishmanicidal activity”.

In the case of `CCC(C)C(=O)NC1CCC(=O)N(CCc2ccccc2)C1=O` (centres unmarked) [julocrotine], the reduction in promastigotes [9] is given as 54% and the “reduction of amastigote form” value [10] is given as 80%.

In the case of `CCCCCCCCCCCCCCCCOP(=O)([O-])OCC[N+](C)(C)C` [miltefosine, reference compound], the IC50 [11] is listed as 0.5 µM.

With `O=C1C=C2C=CC3CC2(O1)C1CCCCN1O3` (single isomer, unassigned; (+)) [(+)-phyllanthidine] the IC50 ([5]; Leishmania, 96 h, 96 h of treatment) was 82.4 µg/mL and 353 µM, the inhibition at 100 µg/mL ([5]; Leishmania, 100 µg/mL, 96 h of treatment, read-out: inhibition of promastigote growth) was 67.7% and the CC50 at 48 h [12] was greater than 200 µg/mL. The “cytotoxic effect on macrophages” value [13] was “no cytotoxic effects on macrophages; also recorded: No cytotoxic effect was detected”, the “parasite (amastigote) reduction” value ([6]; 50 μg/mL, 48 h) was 75.5% and the “parasite (amastigote) reduction” value ([6]; 100 μg/mL, 48 h) was 83.96%. For the same molecule, the IC50 ([6]; Leishmania, Peritoneal macrophage, 48 h of treatment) was 49.1 µg/mL and 210 µM, the “selectivity index (SI)” value ([6]; ratio between cytotoxicity (macrophages) and activity against intracellular amastigotes) was 25.08 and the “promastigote ultrastructural changes (TEM)” value ([14]; 50 µg/mL, 96 h) was “kinetoplast swelling”. The “promastigote ultrastructural changes (TEM)” value ([14]; 100 µg/mL) was “increase in the number of acidocalcisome-like structures”.

In the case of `COC(=O)c1cc(O)c(O)c(O)c1` [Methyl galate, methyl gallate], the IC50 [11] is given as 33.6 µM.
